Laboratory results published in patent publication US5750521A, “Mercaptoacetylamide disulfide derivatives useful as inhibitors of enkephalinase and ACE” (Hoechst Marion Roussel Inc., priority 1996, dated 1998).

Target: T1, ACE, rat kidney preparations (Rattus norvegicus, UniProt P47820)
T1 construct: compound- or vehicle-dosed rat kidney preparations; from tissue; host or cells: kidney of male Sprague-Dawley rats
T1 sequence (P47820 36-1313): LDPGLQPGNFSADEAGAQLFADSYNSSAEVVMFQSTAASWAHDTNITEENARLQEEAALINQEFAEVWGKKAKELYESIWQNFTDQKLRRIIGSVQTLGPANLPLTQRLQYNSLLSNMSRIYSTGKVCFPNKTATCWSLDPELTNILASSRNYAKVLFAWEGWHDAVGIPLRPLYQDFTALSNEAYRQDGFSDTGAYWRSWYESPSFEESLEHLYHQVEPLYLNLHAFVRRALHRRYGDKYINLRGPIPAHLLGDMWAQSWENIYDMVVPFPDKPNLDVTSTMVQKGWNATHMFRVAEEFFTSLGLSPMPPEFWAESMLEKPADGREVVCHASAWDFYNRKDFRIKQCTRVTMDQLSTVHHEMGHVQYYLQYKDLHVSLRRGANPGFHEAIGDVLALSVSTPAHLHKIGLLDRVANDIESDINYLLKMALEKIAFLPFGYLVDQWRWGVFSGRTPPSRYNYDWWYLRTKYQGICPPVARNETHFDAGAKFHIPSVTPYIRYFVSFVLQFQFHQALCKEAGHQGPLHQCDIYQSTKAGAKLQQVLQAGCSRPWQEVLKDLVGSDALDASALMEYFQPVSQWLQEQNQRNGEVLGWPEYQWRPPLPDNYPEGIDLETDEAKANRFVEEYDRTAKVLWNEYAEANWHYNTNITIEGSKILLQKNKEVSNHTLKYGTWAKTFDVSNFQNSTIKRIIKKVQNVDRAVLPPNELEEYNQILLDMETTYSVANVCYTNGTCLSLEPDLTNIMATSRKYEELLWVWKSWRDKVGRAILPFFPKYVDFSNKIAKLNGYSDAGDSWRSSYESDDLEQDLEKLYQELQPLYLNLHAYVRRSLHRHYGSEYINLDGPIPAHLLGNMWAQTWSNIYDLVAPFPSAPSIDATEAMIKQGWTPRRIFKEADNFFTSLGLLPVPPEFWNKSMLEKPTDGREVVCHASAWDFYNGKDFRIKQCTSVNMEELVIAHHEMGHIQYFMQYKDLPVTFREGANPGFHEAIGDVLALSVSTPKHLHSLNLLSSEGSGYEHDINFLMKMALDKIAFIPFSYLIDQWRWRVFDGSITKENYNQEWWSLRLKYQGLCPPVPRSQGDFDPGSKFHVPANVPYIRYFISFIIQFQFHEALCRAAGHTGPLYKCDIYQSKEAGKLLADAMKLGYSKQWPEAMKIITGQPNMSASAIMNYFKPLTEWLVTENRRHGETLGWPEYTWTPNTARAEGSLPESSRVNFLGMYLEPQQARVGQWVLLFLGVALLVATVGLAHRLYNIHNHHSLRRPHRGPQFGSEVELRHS
Assay: radiometric ACE assay with tritiated hippuryl-glycyl-glycine
Assay type: biochemical
Details: 1 μM enalaprilat; compound- or vehicle-dosed rat kidney preparations

C[C@H](N[C@@H](CCc1ccccc1)C(=O)O)C(=O)N1CCC[C@H]1C(=O)O [enalaprilat]
inhibition of radioactive product formation: Complete inhibition
